Here are results for 20 molecules from PubChem BioAssay AID200 (DTP/NCI, 2004).

This test deals with B6C3F1 mice, B16 melanoma ip, median survival T/C. In words: NCI In Vivo Anticancer Drug Screen. Data for tumor model B16 Melanoma (intraperitoneal) in B6C3F1 mice. As to conditions: endpoint: median survival time, schedule: Q01DX009 (ip), higher = longer survival. In outline:
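Antitumor effect was judged in mice with transplanted tumors by dividing the treated group's survival measure by that of vehicle controls.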

Setting [1] is: dose: 12.5 mg/kg/injection, vehicle: saline.
Where [2] appears, read: dose: 25.0 mg/kg/injection, vehicle: saline.
[3] abbreviates: dose: 100.0 mg/kg/injection, vehicle: saline.
Where [4] appears, read: dose: 200.0 mg/kg/injection, vehicle: saline.
Setting [5] is: dose: 50.0 mg/kg/injection, vehicle: saline.
Setting [6] is: dose: 25.0 mg/kg/injection, vehicle: Klucel (hydroxypropylcellulose) (HPC).
Setting [7] is: dose: 50.0 mg/kg/injection, vehicle: Klucel (hydroxypropylcellulose) (HPC).
Setting [8] is: dose: 100.0 mg/kg/injection, vehicle: Klucel (hydroxypropylcellulose) (HPC).
[9] abbreviates: dose: 200.0 mg/kg/injection, vehicle: Klucel (hydroxypropylcellulose) (HPC).
The mark [10] stands for this setting: dose: 400.0 mg/kg/injection, vehicle: Klucel (hydroxypropylcellulose) (HPC).
[11] abbreviates: dose: 400.0 mg/kg/injection, vehicle: saline.
[12] abbreviates: dose: 25.0 mg/kg/injection, vehicle: saline with Tween-80.
The mark [13] stands for this setting: dose: 50.0 mg/kg/injection, vehicle: saline with Tween-80.
[14] abbreviates: dose: 6.0 mg/kg/injection, vehicle: saline with Tween-80.
Setting [15] is: dose: 6.25 mg/kg/injection, vehicle: Klucel (hydroxypropylcellulose) (HPC).
The mark [16] stands for this setting: dose: 12.5 mg/kg/injection, vehicle: Klucel (hydroxypropylcellulose) (HPC).

Where “and” joins values, the source holds several entries; their conditions need not be identical. Equal values may be shown once. Toxic doses and inconclusive results are not listed.

For the molecule `C1OC1CO[C@@H]1CO[C@H]2[C@@H]1OC[C@H]2OCC1CO1` (stereo partly drawn), the T/C was 111 % of control under setting [1]; 111 % of control (dose: 12.5 mg/kg/injection, vehicle: suspension in saline); 115 % of control under setting [2]; 111 % of control (dose: 25.0 mg/kg/injection, vehicle: suspension in saline); 171 % of control and 182 % of control under setting [3]; 153 % of control (dose: 100.0 mg/kg/injection, vehicle: suspension in saline). Further, the T/C reads like this: under setting [4], 220 % of control and 235 % of control; (dose: 200.0 mg/kg/injection, vehicle: suspension in saline) 205 % of control.

Turning to `O=C(O)/C=C(\F)C(=O)O`, the T/C reads like this: (dose: 6.25 mg/kg/injection, vehicle: saline) 97 % of control and 100 % of control; under setting [1], 102 % of control and 107 % of control; under setting [2], 108 % of control and 117 % of control; under setting [5], 113 % of control and 114 % of control; under setting [3], 103 % of control and 113 % of control; under setting [4], 113 % of control and 103 % of control.

Turning to `N=c1nc2n(cc1F)[C@@H]1O[C@H](CO)[C@@H](O)[C@@H]1O2`, the T/C by setting is: under setting [6], 111 % of control; under setting [2], 110 % of control; under setting [7], 121 % of control; under setting [5], 112 % of control; under setting [8], 110 % of control; under setting [3], 117 % of control and 97 % of control. Besides, the T/C is, setting by setting: under setting [9], 104 % of control; under setting [4], 124 % of control and 105 % of control; under setting [10], 117 % of control; under setting [11], 121 % of control.

In the case of `Cc1cc2c(C(C)C)c(O)c(O)c(C=NCCO)c2c(O)c1-c1c(C)cc2c(C(C)C)c(O)c(O)c(C=NCCO)c2c1O`, the T/C under setting [12] was 109 % of control and 111 % of control and 103 % of control; the T/C under setting [13] is 108 % of control and 109 % of control and 91 % of control; the T/C (dose: 100.0 mg/kg/injection, vehicle: saline with Tween-80) is 109 % of control and 121 % of control and 101 % of control; the T/C (dose: 200.0 mg/kg/injection, vehicle: saline with Tween-80) was 114 % of control and 120 % of control; the T/C (dose: 400.0 mg/kg/injection, vehicle: saline with Tween-80) is 153 % of control.

For `Cc1ccc2nc(-c3ccc4nc(-c5ccc(N=Nc6ccc(-c7nc8ccc(-c9nc%10ccc(C)c(S(=O)(=O)O)c%10s9)cc8s7)cc6)cc5)sc4c3)sc2c1S(=O)(=O)O`, the T/C under setting [1] was 87 % of control, the T/C under setting [2] was 86 % of control and the T/C under setting [3] is 88 % of control.

With `O=C(O[Si](Cc1ccccc1)(Cc1ccccc1)Cc1ccccc1)N(CCCl)CCCl`, the T/C is 103 % of control under setting [14]; 108 % of control (dose: 12.5 mg/kg/injection, vehicle: saline with Tween-80); 101 % of control and 106 % of control under setting [12]; 113 % of control and 106 % of control under setting [13].

As for `Cc1cc(NC(=S)SCc2ccc3c(c2)OCO3)ccc1Cl`, the T/C is 103 % of control under setting [7] and 112 % of control under setting [8].

As to `COC1C(O)CC(OC2CC(Oc3cc4cc5c(c(O)c4c(O)c3C)C(=O)[C@@H](OC3CC(OC4CC(OC6CC(C)(O)C(OC(C)=O)C(C)O6)C(O)C(C)O4)C(O)C(C)O3)[C@H]([C@H](OC)C(=O)[C@@H](O)[C@@H](C)O)C5)OC(C)C2OC(C)=O)OC1C` (stereo partly drawn), the T/C is 165 % of control (dose: 0.01 mg/kg/injection, vehicle: Klucel (hydroxypropylcellulose) (HPC)); 151 % of control (dose: 0.04 mg/kg/injection, vehicle: Klucel (hydroxypropylcellulose) (HPC)); 196 % of control (dose: 0.08 mg/kg/injection, vehicle: Klucel (hydroxypropylcellulose) (HPC)); 171 % of control (dose: 0.16 mg/kg/injection, vehicle: Klucel (hydroxypropylcellulose) (HPC)).

In the case of `Cc1cc(Nc2ccc3c(c2)OCO3)c2cc3c(cc2n1)OCO3`, the T/C is, setting by setting: under setting [6], 105 % of control; under setting [7], 101 % of control.

As to `COC(=O)[C@@H]1c2cc3c(c(O)c2[C@@H](OC)C[C@@]1(C)O)C(=O)c1c(O)cc2c(c1C3=O)OC1O[C@@]2(C)[C@H](O)[C@@H](N(C)C)[C@@H]1O`, the T/C reads like this: under setting [1], 158 % of control; under setting [2], 159 % of control; under setting [5], 158 % of control.

With `CS(=O)(=O)OCCn1c(=O)n(CCOS(C)(=O)=O)c(=O)n(CCOS(C)(=O)=O)c1=O`, the T/C was 97 % of control under setting [8], 95 % of control under setting [9] and 86 % of control under setting [10].

Regarding `CN(C)c1ccc(C(=C2C=CC(=[N+](C)C)C=C2)c2ccc(N(C)C)cc2)cc1` (tested in a mixture with another compound), the T/C is, setting by setting: (dose: 0.62 mg/kg/injection, vehicle: saline) 95 % of control; (dose: 1.25 mg/kg/injection, vehicle: saline) 105 % of control; (dose: 2.5 mg/kg/injection, vehicle: saline) 104 % of control.

For `O=C(O)c1cc(C(=O)O)c(C(=O)O)cc1C(=O)O.[NH2-].[NH2-].[NH2-].[NH2-].[Pt+2].[Pt+2]`, the T/C runs as follows: (dose: 0.12 mg/kg/injection, vehicle: water) 110 % of control; (dose: 0.25 mg/kg/injection, vehicle: water) 104 % of control; (dose: 0.5 mg/kg/injection, vehicle: water) 109 % of control and 110 % of control; (dose: 1.0 mg/kg/injection, vehicle: water) 114 % of control and 118 % of control; (dose: 8.0 mg/kg/injection, vehicle: water) 154 % of control.

Take `S=C(S)NN1CCOCC1`: the T/C was 98 % of control under setting [3], 99 % of control under setting [4] and 96 % of control under setting [11].

As to `O=NN(CCCl)C(=O)Oc1ccc(OC(=O)N(CCCl)N=O)cc1`, the T/C (dose: 3.12 mg/kg/injection, vehicle: Klucel (hydroxypropylcellulose) (HPC)) was 112 % of control; the T/C under setting [15] was 107 % of control; the T/C under setting [16] was 107 % of control.

In the case of `Cc1cnc(/C=N\NC(N)=S)c2cccc(N)c12`, the T/C was 108 % of control (dose: 3.0 mg/kg/injection, vehicle: saline with Tween-80) and 116 % of control under setting [14].

As for `COC1=C(NC(C)=O)C(=O)c2nc(-c3nc(C(=O)O)c(C)c(-c4ccc(OC)c(OC)c4O)c3N)ccc2C1=O`, the T/C by setting is: under setting [15], 103 % of control; under setting [16], 95 % of control; under setting [6], 86 % of control; under setting [7], 97 % of control.

In the case of `COc1cc([NH-])c([NH-])cc1OC.[Cl][Pt+2][Cl]`, the T/C is 100 % of control (dose: 20.0 mg/kg/injection, vehicle: saline with Tween-80); 101 % of control (dose: 40.0 mg/kg/injection, vehicle: saline with Tween-80); 112 % of control (dose: 80.0 mg/kg/injection, vehicle: saline with Tween-80).

On to `Cc1c2ccncc2c(C)c2c1[nH]c1ccccc12`, for which the T/C reads like this: (dose: 1.25 mg/kg/injection, vehicle: distilled water + Tween-80) 106 % of control; (dose: 1.25 mg/kg/injection, vehicle: water) 105 % of control; (dose: 2.5 mg/kg/injection, vehicle: distilled water + Tween-80) 117 % of control; (dose: 2.5 mg/kg/injection, vehicle: water) 104 % of control; (dose: 5.0 mg/kg/injection, vehicle: water) 117 % of control; (dose: 10.0 mg/kg/injection, vehicle: distilled water + Tween-80) 151 % of control. Moreover, for the setting “dose: 20.0 mg/kg/injection, vehicle: distilled water + Tween-80”, the T/C is 173 % of control.

Turning to `CC1CCOS(=O)O1` (stereo not drawn), the T/C (dose: 10.0 mg/kg/injection, vehicle: saline) was 104 % of control; the T/C (dose: 20.0 mg/kg/injection, vehicle: saline) was 123 % of control; the T/C (dose: 40.0 mg/kg/injection, vehicle: saline) was 110 % of control.
